Reference: article PMC12951562, “SH2scan: Mapping SH2 Domain-Ligand Binding Selectivity for Inhibitors and Degraders” (Journal of Medicinal Chemistry, 2026)
Read-outs that look alike come from different tables or passages of the source.

Key:
Experiment in all cases: biochemical
Format in all cases: binding
[1] = target: T1, VAV1 (Homo sapiens, UniProt P15498); details: read-out: percent of DMSO vehicle control; for remaining activity at 10 µM: primary screen
T1 construct: made in house; host or cells: HEK293 (transient transfection), unpurified extract
T1 sequence (P15498 1-845): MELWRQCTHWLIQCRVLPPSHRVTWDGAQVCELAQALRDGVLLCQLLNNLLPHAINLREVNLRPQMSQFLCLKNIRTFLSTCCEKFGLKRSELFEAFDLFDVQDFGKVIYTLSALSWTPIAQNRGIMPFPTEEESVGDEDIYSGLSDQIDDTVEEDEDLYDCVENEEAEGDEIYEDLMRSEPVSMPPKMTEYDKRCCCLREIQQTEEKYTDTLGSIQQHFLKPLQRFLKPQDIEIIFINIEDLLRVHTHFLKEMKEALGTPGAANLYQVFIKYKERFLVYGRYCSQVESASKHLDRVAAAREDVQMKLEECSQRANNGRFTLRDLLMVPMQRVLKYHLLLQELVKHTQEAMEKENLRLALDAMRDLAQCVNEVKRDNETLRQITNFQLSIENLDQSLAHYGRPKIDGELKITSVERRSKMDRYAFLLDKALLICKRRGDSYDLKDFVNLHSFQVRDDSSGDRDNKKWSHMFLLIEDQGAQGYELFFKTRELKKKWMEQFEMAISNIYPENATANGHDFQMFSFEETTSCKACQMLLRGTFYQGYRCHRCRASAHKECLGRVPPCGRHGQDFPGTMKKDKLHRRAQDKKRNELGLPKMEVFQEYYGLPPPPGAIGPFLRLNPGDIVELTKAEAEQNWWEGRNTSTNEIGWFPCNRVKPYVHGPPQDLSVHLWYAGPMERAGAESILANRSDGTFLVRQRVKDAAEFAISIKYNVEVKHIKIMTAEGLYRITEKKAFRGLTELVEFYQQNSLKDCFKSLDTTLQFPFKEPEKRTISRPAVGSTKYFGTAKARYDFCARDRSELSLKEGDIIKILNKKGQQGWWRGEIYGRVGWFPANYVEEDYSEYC

[2] = target: T2, TNS3 (Homo sapiens, UniProt Q68CZ2); details: read-out: percent of DMSO vehicle control
T2 construct: made in house; host or cells: HEK293 (transient transfection), unpurified extract
T2 sequence (Q68CZ2 1-1445): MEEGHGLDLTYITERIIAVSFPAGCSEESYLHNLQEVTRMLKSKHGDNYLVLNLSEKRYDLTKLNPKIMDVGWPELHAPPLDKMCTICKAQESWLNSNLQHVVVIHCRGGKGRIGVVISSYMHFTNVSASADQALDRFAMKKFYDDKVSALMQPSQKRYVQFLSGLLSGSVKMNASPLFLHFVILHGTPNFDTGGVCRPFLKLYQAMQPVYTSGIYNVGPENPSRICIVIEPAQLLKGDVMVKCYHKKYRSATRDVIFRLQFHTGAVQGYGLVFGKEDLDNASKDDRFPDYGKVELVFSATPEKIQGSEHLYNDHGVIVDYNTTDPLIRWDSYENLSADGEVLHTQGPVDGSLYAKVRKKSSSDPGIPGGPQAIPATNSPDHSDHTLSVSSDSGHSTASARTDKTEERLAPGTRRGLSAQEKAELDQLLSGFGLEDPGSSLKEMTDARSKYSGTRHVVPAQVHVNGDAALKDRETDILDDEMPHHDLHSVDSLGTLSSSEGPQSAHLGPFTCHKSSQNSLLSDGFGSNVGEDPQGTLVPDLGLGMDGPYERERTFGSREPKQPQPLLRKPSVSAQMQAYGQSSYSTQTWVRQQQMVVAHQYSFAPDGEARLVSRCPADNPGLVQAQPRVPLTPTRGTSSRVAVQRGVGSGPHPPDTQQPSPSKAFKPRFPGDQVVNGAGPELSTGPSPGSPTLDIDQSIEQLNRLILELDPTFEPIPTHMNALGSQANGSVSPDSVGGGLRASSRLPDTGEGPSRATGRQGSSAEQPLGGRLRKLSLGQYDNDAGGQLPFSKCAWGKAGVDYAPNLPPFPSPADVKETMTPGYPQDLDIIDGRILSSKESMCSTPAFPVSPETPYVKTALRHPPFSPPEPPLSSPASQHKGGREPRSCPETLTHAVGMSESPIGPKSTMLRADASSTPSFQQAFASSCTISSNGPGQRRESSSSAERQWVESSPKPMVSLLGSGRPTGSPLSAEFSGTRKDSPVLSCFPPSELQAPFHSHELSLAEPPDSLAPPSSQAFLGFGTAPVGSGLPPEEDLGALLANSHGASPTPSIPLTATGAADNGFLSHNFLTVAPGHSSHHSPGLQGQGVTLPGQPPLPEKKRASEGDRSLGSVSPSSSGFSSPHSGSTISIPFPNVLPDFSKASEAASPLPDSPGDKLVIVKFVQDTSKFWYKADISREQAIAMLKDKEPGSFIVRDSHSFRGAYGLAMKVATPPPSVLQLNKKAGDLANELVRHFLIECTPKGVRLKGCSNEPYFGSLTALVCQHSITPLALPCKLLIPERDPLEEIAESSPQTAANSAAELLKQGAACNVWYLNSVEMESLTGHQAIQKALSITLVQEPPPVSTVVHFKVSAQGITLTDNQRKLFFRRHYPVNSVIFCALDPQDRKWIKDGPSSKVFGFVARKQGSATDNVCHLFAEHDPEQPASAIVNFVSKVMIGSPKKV

[3] = target: T3, HSH2D (Homo sapiens, UniProt Q96JZ2); details: for percent of DMSO vehicle control at 10 µM / remaining activity at 10 µM: read-out: percent of DMSO vehicle control; for remaining activity at 10 µM: primary screen
T3 construct: the DNA-tagged SH2 domain concentrations used in this study were <0.1 nM; made in house; host or cells: HEK293 (transient transfection, unpurified extract)
T3 sequence (Q96JZ2 34-125 limits assumed): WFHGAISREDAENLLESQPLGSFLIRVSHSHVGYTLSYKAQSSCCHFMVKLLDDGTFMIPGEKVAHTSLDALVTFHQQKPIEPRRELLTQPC

[4] = target: T4, ABL1 (Homo sapiens, UniProt P00519); details: for percent of DMSO control binding at 10 µM / remaining activity at 10 µM: read-out: percent of DMSO vehicle control; for KD: dose-response; for remaining activity at 10 µM: primary screen
T4 construct: the DNA-tagged SH2 domain concentrations used in this study were <0.1 nM; made in house; host or cells: HEK293 (transient transfection; unpurified extract)
T4 sequence (P00519 127-217 limits assumed): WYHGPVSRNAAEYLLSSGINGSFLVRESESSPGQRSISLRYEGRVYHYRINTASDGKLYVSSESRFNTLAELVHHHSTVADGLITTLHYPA

[5] = target: T5, BLK (Homo sapiens, UniProt P51451); details: read-out: percent of DMSO vehicle control
T5 construct: the DNA-tagged SH2 domain concentrations used in this study were <0.1 nM; made in house; host or cells: HEK293 (transient transfection; unpurified extract)

[6] = target: T6, SH2D6 (Homo sapiens, UniProt Q7Z4S9); details: read-out: percent of DMSO vehicle control
T6 construct: made in house; host or cells: HEK293 (transient transfection), unpurified extract
T6 sequence (Q7Z4S9 whole entry): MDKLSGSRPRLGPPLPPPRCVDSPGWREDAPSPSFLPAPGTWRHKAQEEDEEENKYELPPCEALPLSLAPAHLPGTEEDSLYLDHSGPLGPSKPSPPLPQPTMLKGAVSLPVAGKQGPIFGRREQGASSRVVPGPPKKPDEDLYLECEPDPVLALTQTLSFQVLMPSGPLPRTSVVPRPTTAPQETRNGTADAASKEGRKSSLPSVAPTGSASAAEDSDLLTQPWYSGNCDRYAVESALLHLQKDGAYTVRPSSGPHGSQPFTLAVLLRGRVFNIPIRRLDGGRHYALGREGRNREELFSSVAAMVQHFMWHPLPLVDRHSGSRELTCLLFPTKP

T5 sequence (P51451 124-220 limits assumed): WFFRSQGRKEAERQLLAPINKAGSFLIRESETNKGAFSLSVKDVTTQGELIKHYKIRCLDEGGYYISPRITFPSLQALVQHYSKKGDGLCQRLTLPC

Compound | percent of DMSO vehicle control at 10 µM [1] [%] | remaining activity at 10 µM [2] [%] | percent of DMSO vehicle control at 10 µM [3] [%] | percent of DMSO control binding at 10 µM [4] [%] | remaining activity at 10 µM [5] [%] | remaining activity at 10 µM [6] [%] | remaining activity at 10 µM [1] [%] | remaining activity at 10 µM ([2]; primary screen, 10 μM) [%] | KD ([3]; dose-response) | remaining activity at 10 µM [3] [%] | KD [4] | remaining activity at 10 µM [4] [%] | remaining activity at 10 µM ([5]; primary screen, 10 μM) [%] | remaining activity at 10 µM ([6]; primary screen, 10 μM) [%] | Kd ([3]; dose-response, read-out: KD) [µM]
NC(=O)CC[C@H](NC(=O)[C@@H]1CC[C@@H]2CCN(C(=O)CCCCCC#Cc3cccc4c3CN(C3CCC(=O)NC3=O)C4=O)C[C@H](NC(=O)c3cc4cc(C(F)(F)P(=O)(O)O)ccc4[nH]3)C(=O)N21)C(=O)NC(c1ccccc1)c1ccccc1 (stereo partly drawn) [SD-36] | 116 ± 3 | 57.6 ± 6 | 72.7 ± 14.5 | 87.4 ± 24 | 70.6 ± 5.9 | 99.6 ± 3.4 |  |  |  |  |  |  |  |  | 
CC(=O)N1CC[C@H]2CC[C@@H](C(=O)N[C@@H](CCC(N)=O)C(=O)NC(c3ccccc3)c3ccccc3)N2C(=O)[C@@H](NC(=O)c2cc3cc(C(F)(F)P(=O)(O)O)ccc3[nH]2)C1 [SI-109] | 112 | 128 | 154 | 132 | 105 | 96.9 ± 1.7 |  |  |  |  |  |  |  |  | 
C/C(=C\C(=O)N[C@H](C(=O)N1CCC[C@H]1C(=O)N(c1ccccc1)c1ccc(I)cc1)C(C)(C)C)c1ccc(OP(=O)(O)O)cc1 [STAT6-IN-1] |  |  |  |  |  |  | 55.3 ± 2.6 | 57 ± 10.1 | No Hit | 14.6 ± 0.1 | No Hit | 0 | 49.1 ± 3.4 | 67.5 ± 5.3 | 
CC(C)(C)[C@H](NC(=O)/C=C/c1ccc(OP(=O)(O)O)cc1)C(=O)N1CCC[C@H]1C(=O)N(c1ccccc1)c1ccc(I)cc1 [STAT6-IN-3] |  |  |  |  |  |  | 67.6 ± 32.1 | 55.6 ± 12.1 |  | 19.6 ± 29.7 | No Hit | 0 | 67.6 ± 11 | 97.5 ± 15.9 | 7.6 ± 1.6
O=C(COc1ccc2cc(C(=O)Nc3ccccc3)ccc2c1)NCc1ccc(OP(=O)(O)O)c(OP(=O)(O)O)c1 [Stafib-1] |  |  |  |  |  |  | 106 | 77.8 ± 9 | No Hit | 27.1 | No Hit | 19.9 | 91.8 ± 35.5 | 88.5 ± 5.5 | 
